In patent US20050014824A1, “Pigment” (priority 2001, published 2005):
Values belong to the molecule of their own block, whether it stands above or below them.

Columns and labels:
salmonid fishes = settings: cited from earlier work
[1] = tested on: enzymes from salmon intestines; test: hydrolysis of astaxanthin omega-3 fatty acid diester by enzyme mixture from salmon intestines, optical isomer distribution by HPLC of dicamphanates; assay type: in vitro ADME, Salmo salar
Experimental: As described in Example 1 below, hydrolysis experiments were performed with a diester of synthetic astaxanthin with omega-3 fatty acids and a crude enzyme preparation from salmon intestines in the same way as described before (NO-309386). The reaction products were analysed with regard to stereoisomer composition.
A diester of astaxanthin was prepared by conventional chemical synthesis from commercially obtained synthetic astaxanthin and an omega-3 fatty acid concentrate containing more than 90% omega-3 fatty acids, mainly EPA (eicosapentaenoic acid) and DHA (docosahexaenoic acid). The astaxanthin used had been prepared by chemical synthesis, and the distribution of the optical isomers (3R,3′R), meso and (3S,3′S) was 25.9:50.2:23.9, respectively, determined as described for the diol fraction.
The starting astaxanthin diester was treated with a freshly prepared enzyme mixture from the intestines of recently fed salmon (Salmo salar) for 48 hours. The pigment was then separated into three fractions by preparative thin-layer chromatography; a diol fraction with both hydroxyl groups hydrolysed, a monoester fraction with one hydroxyl group hydrolysed, and a remaining diester fraction. The astaxanthin in the diol fraction was converted into the corresponding diesters of (−)-camphanic acid by reaction with (−)-camphanoyl chloride, and the distribution of astaxanthin optical isomers were determined by high-performance liquid chromatography (HPLC) of the dicamphanates. The astaxanthin in the monoester fraction was first converted to diol in a hydrolysis reaction catalysed by the enzyme cholesterol esterase and subsequently treated with (−)-camphanic acid and analysed as described above. Attempts to convert the astaxanthin in the remaining diester fraction to diol using cholesterol esterase were not successful, as complete conversion was not obtained. The distribution of optical isomers of astaxanthin in the remaining diester fraction was therefore not determined.

[2] = pigment fraction, enzyme treatment 48 hours, starting diester = before treatment

Structure (SMILES): CCCCCCCCCCCCCCCC(=O)O[C@H]1CC(C)(C)C(/C=C/C(C)=C/C=C/C(C)=C/C=C/C=C(C)/C=C/C=C(C)/C=C/C2=C(C)C(=O)[C@@H](OC(=O)CCCCCCCCCCCCCCC)CC2(C)C)=C(C)C1=O [dipalmitate, of (3R,3′R)-astaxanthin]
utilisation by salmonids (salmonid fishes; diet containing the ester form, compared with dipalmitate of (3S,3′S)-astaxanthin): better than dipalmitate of (3S,3′S)-astaxanthin

distribution of astaxanthin optical isomers: (3R,3′R) [1, 2]: 94.6
distribution of astaxanthin optical isomers: meso [1, 2]: 5.4
Structure (SMILES): CC1=C(/C=C/C(C)=C/C=C/C(C)=C/C=C/C=C(C)/C=C/C=C(C)/C=C/C2=C(C)C(=O)[C@@H](O)CC2(C)C)C(C)(C)C[C@H](O)C1=O [Diol (after enzyme treatment)]
predominant optical isomer of astaxanthin in the fraction (in words) ([1]; after enzyme treatment): almost exclusively the (3R,3′R)-configuration, with traces of the meso-form

Structure (SMILES): CC1=C(/C=C/C(C)=C/C=C/C(C)=C/C=C/C=C(C)/C=C/C=C(C)/C=C/C2=C(C)C(=O)[C@@H](O)CC2(C)C)C(C)(C)C[C@H](O)C1=O [astaxanthin]
absorption and deposition in the flesh of the optical isomers (salmonid fishes; in vivo): equally well absorbed and deposited
